Each compound was assayed against T1, human BACE1 (sproBACE1) (Homo sapiens, UniProt P56817) (assay: BACE-1 Peptide Hydrolysis Assay (HTRF)). Settings: read-out: BACE-1 Ki.
T1 construct: sBACE1, corresponding to amino acids 1-454; made in house; host or cells: Sf9 insect cells (baculovirus), secreted into the medium
Format: biochemical
In short: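 Secreted sBACE1-myc/His from baculovirus-infected sf9 cells, purified on Q-sepharose then Ni-NTA. Substrate-initiated reactions ran 3 hr at 30° C., then were stopped with KF buffer (pH 8.0) containing SA-XL665 for HTRF read-out. EC50 was fitted by sigmoidal dose-response to percent change in ratio.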

T1 sequence (P56817 22-454): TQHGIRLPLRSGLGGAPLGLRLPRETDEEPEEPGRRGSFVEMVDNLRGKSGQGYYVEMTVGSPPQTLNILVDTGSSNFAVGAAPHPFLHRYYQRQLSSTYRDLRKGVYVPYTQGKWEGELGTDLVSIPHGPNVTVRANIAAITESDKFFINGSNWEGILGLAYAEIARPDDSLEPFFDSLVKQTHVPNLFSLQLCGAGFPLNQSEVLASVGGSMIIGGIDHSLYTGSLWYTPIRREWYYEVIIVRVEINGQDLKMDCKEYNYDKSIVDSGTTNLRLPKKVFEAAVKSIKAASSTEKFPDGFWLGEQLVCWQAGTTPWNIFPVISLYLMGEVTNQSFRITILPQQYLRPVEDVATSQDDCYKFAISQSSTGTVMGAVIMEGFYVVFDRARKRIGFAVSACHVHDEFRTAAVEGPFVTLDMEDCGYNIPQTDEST

Compound | Ki [nM]
N=C1NC(c2ccccc2)(c2ccccc2)C(=O)N1CC1CCN(C(=O)C2(c3ccccc3)CC2)CC1 | < 5000
CN1C(=N)NC(c2ccccc2)(c2cccc(NS(=O)(=O)c3cccc(C#N)c3)c2)C1=O (racemic) | < 5000
CN1C(=N)NC(c2cccc(-c3cncc(Br)c3)c2)(C2(C)CC2)C1=O (centres unmarked) | < 5000
CN1C(=N)N[C@](C)(c2cc(-c3cc(Cl)cc(C#N)c3)cs2)[C@H](C2CC2)C1=O | < 5000
N=C1NC(c2ccccc2)(c2ccccc2)C(=O)N1CC1CCN(C(=O)CN)CC1 | < 5000
CN1C(=N)NC(c2ccccc2)(c2cccc(-c3cc(Br)cc(OC(F)(F)F)c3)c2)C1=O (racemic) | < 5000
COc1ccccc1C(=O)N[C@@H]1CCC[C@H](C[C@@]2(CCC3CCCCC3)NC(=N)N(C)C2=O)C1 | < 5000
CC(C)Oc1cccc([C@H]2C(=O)N(C)C(=N)N[C@]2(C)c2cc(-c3cccc(C#N)c3)cs2)c1 | < 5000
CCn1nccc1Nc1cccc(C2(c3ccccc3)NC(=N)N(C)C2=O)c1 (centres unmarked) | < 5000

Now from value to compound:

Ki [nM] | Compound
< 5000 | CN1C(=N)NC(C)(c2cccc(-c3cc(Cl)ccc3CNC(=O)c3ccncc3)c2)C1=O (centres unmarked)
< 5000 | N=C1NC(c2ccccc2)(c2ccccc2)C(=O)N1Cc1cccc(NC(=O)CC2CCCC2)c1
< 5000 | CN1C(=N)N[C@](C)(c2cc(Br)c(-c3cncc(C#N)c3)s2)CC1=O
< 5000 | CN1C(=N)N[C@@](CCC2CCCCC2)(C[C@H]2CCC[C@@H](Nc3ccc4cccc(Cl)c4n3)C2)C1=O
< 5000 | CN1C(=N)N[C@](C)(c2cc(-c3cccc(C#N)c3)c(Br)s2)CC1=O
< 5000 | Cc1csc(-c2csc(C3(C4CC4)NC(=N)N(C)C3=O)c2)c1 (centres unmarked)
< 5000 | CC(=O)N1CCC[C@H](CN2C(=N)NC(c3ccccc3)(c3ccccc3)C2=O)C1
< 5000 | CN1C(=N)NC(c2cccc(-n3ccnc3)c2)(C2CC2)C1=O (centres unmarked) [5-CYCLOPROPYL-5-[3-(1H-IMIDAZOL-1-YL)PHENYL]-2-IMINO-3-METHYL-4-IMIDAZOLIDINONE]

Each compound was assayed against T2, human liver Cathepsin D (Homo sapiens, UniProt P07339) (assay: Human Cathepsin D FRET Assay). Settings: Ki interpolated from IC50 using Km 4 uM and substrate 2.5 uM; read-out: hCathD Ki.
T2 construct: Purified (>95%) human liver Cathepsin D; purchased Athens Research & Technology 16-12-030104; host or cells: human liver (tissue-derived)
T2 sequence (P07339 65-161 limits assumed): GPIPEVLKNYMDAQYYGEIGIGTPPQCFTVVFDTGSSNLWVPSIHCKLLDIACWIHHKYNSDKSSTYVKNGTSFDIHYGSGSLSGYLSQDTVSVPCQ
T2 sequence (P07339 169-412 limits assumed): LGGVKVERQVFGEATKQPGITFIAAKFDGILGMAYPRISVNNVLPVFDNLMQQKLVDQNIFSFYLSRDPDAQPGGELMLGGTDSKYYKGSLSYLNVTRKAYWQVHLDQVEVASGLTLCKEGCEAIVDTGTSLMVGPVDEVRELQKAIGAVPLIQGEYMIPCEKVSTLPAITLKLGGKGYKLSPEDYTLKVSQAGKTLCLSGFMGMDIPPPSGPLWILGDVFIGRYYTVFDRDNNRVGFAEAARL
Format: biochemical
Procedure: This assay can be run in either continuous or endpoint format. […] Substrate and enzyme are commercially available.
The assay is run in a 30 ul final volume using a 384 well Nunc black plate. 8 concentrations of compound are pre-incubated with enzyme for 30 mins at 37 C followed by addition of substrate with continued incubation at 37 C for 45 mins. The rate of increase in fluorescence is linear for over 1 h and is measured at the end of the incubation period using a Molecular Devices FLEX station plate reader.
Compound is diluted to 3× final concentration in assay buffer containing 3% DMSO. […] 10 ul of substrate is added to each well mixed and spun briefly to initiate the reaction.

Ki [nM] | Compound
0.45 | N=C1N[C@](CCC2CCCCC2)(CC2CCCCC2)C(=O)N1Cc1ccc(Cl)cc1Cl [drawing 4522]

Same assay, conditions: compounds listed as exhibiting hCathD Ki under 75 nM; Ki interpolated from IC50, Km 4 uM, substrate 2.5 uM

Compound | Ki [nM]
Cc1ccccc1CN1C(=N)N[C@](CCC2CCCCC2)(CC2CCCCC2)C1=O | < 75
N=C1NC(CCC2CCCCC2)(c2cccc(Br)c2)C(=O)N1CC1CCN(C(=O)COc2ccccc2)CC1 (centres unmarked) | < 75
C[C@@H](C1CCCCC1)N1C(=N)N[C@](CCC2CCCCC2)(CC2CCCCC2)C1=O | < 75
CC(C)C[C@H](CO)N1C(=N)N[C@](CCC2CCCCC2)(CC2CCCCC2)C1=O | < 75
N=C1N[C@](CCC2CCCCC2)(CC2CCCCC2)C(=O)N1Cc1cccc([N+](=O)[O-])c1 | < 75
CCCCNC(=O)NCc1ccc(CN2C(=N)NC(CCC3CCCCC3)(CC3CCCCC3)C2=O)cc1 (centres unmarked) | < 75
CCCCOC1CCCC(C[C@@]2(CCC3CCCCC3)NC(=N)N(C)C2=O)C1 (some centres unmarked) | < 75
N=C1N[C@](CCC2CCCCC2)(CC2CCCCC2)C(=O)N1Cc1ccc(F)cc1 | < 75

The remaining lines, values ahead:

Ki [nM] | Compound
< 75 | CCC[C@H]1CN(Cc2ccc(CC3C(=N)N[C@](CCC4CCCCC4)(CC4CCCCC4)C3=O)cc2)C(=O)N1 (some centres unmarked)
< 75 | N=C1N[C@](CCC2CCCCC2)(CC2CCCCC2)C(=O)N1CCC(c1ccccc1)c1ccccc1
< 75 | N=C1N[C@](CCC2CCCCC2)(CC2CCCCC2)C(=O)N1Cc1ccc(Cl)cc1Cl [drawing 4505]
< 75 | CCCCNC(=O)NCc1ccc(CN2C(=N)NC(CCC3CCCCC3)(CC3CCCCC3)CC2=O)cc1 (centres unmarked)
< 75 | N=C1N[C@](CCC2CCCCC2)(CC2CCCCC2)C(=O)N1Cc1ccc([N+](=O)[O-])cc1
< 75 | N=C1N[C@](CCC2CCCCC2)(CC2CCCCC2)C(=O)N1Cc1ccc(F)cc1Cl
< 75 | CCCCC1(c2cccc(Br)c2)NC(=N)N(CC2CCN(C(=O)COc3ccccc3)CC2)C1=O (centres unmarked)
< 75 | N=C1NC(CCC2CCCCC2)(CC2CCCCC2)C(=O)N1CC1CCN(C(=O)COc2ccccc2)CC1 (centres unmarked)
< 75 | CCCCc1cccc(C2(CCCC)NC(=N)N(CC3CCN(C(=O)COc4ccccc4)CC3)C2=O)c1 (centres unmarked)

What follows are compounds tested against T3, Mature human Renin (Homo sapiens, UniProt P00797) (assay: Human Mature Renin Enzyme Assay (FRET)). Settings: 100 μM compound; percent decrease in renin induced fluorescence after 40 min at 30 degrees celsius.
T3 construct: The prodomain of the recombinant human renin-V5-6His was removed by limited proteolysis using immobilized TPCK-trypsin to give mature-human renin; V5 (C); 6His (C); made in house
T3 sequence (P00797 67-406): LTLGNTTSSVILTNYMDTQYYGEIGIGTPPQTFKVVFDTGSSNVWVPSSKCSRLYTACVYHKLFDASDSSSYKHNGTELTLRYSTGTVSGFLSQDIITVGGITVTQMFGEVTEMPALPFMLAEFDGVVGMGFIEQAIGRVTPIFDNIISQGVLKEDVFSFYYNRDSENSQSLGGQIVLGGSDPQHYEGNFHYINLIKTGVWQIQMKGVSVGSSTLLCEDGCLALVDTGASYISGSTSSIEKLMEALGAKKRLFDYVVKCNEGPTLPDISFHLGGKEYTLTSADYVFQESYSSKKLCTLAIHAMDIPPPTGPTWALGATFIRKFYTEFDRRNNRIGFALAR
Format: biochemical
Excerpt: Human Renin was cloned from a human kidney cDNA library and C-terminally epitope-tagged with the V5-6His sequence into pCDNA3.1. pCNDA3.1-Renin-V5-6His was stably expressed in HEK293 cells and purified to >80% using standard Ni-Affinity chromatography. The prodomain of the recombinant human renin-V5-6His was removed by limited proteolysis using immobilized TPCK-trypsin to give mature-human renin. Renin enzymatic activity was monitored using a commercially available fluorescence resonance energy transfer (FRET) peptide substrate, RS-1 (Molecular Probes, Eugene, Oreg.) in 50 mM Tris-HCl pH 8.0, 100 mM NaCl, 0.1% Brij-35 and 5% DMSO buffer for 40 mins at 30 degrees celsius in the presence or absence of different concentrations of test compounds. Mature human Renin was present at approximately 200 nM. Inhibitory activity was defined as the percent decrease in renin induced fluorescence at the end of the 40 min incubation compared to vehicle controls and samples lacking enzyme.

% inhibition of renin at 100 μM [%] | Compound
68.8 | CN1C(=N)N[C@](CCC2CCCCC2)(C[C@H]2CCC[C@@H](Nc3cccnc3)C2)C1=O
76.9 | CCC[C@H]1CN(Cc2ccc(CN3C(=N)N[C@](CCC4CCCCC4)(CC4CCCCC4)C3=O)cc2)C(=O)N1
75.3 | CCC[C@H]1CN(Cc2ccc(CN3C(=N)NC(CCC4CCCCC4)(CC4CCCCC4)C3=O)cc2)C(=O)N1 (some centres unmarked)
